1 compound from patent publication US20110152092A1, “Herbicidal compositions comprising flufenacet” (Bayer CropScience AG, priority 2009, published 2011) can be followed below.

In one series the test system is APESV. In words: Greenhouse trial, PO application, post-emergence action against weeds (test method 2). Particulars: g of AS/ha: (A) 120, (B) 1200, (C) 120, mixture 120 + 1200 + 120. Format: in vivo, Apera Spica-venti. Here is the method:
(§1) In the standard design of the test, seeds of various broad-leaved weed and weed grass biotypes (origins) were sown in a 8-13 cm diameter pot filled with natural soil of a standard field soil (loamy silt; non-sterile) and covered with a covering soil layer of about 1 cm. The pots were then cultivated in a greenhouse (12-16 h of light, temperature day 20-22° C., night 15-18° C.) until the time of application. The pots were treated on a laboratory track sprayer with spray liquors comprising the compositions according to the invention, mixtures of the prior art or components used individually. Application of the active compounds or active compound combinations formulated as WG, WP, EC or otherwise was carried out at the appropriate growth stages of the plants. The application rate for the spray application was 100-600 l of water/ha. After the treatment, the plants were returned to the greenhouses.
(§2) About 3 weeks after the application, the soil action or/and foliar action was assessed visually according to a scale of 0-100% in comparison to an untreated comparative group: 0%=no noticeable effect compared to the untreated comparative group; 100%=full effect compared to the untreated comparative group. […]

The next series concerns TRZAS. In words: Greenhouse trial, PE application with different irrigation variations (test method 6). It is filed as in vivo, Triticum aestivum, summer wheat. To be noted: g of AS/ha: (A) 120, (B) 1200, (C) 90, mixture 120 + 1200 + 90. Here is the method:
as §1
(§3) About 3 weeks after the application, the soil action or/and foliar action was assessed visually according to a scale of 0-100% in comparison to an untreated comparative group: 0%=no noticeable effect compared to the untreated comparative group; 100%=full effect compared to the untreated comparative group.
(notes: the term “seeds” also includes vegetative propagation forms such as, for example, rhizome pieces; abbreviations used: h light=hours of illumination, g of AS/ha=gram of active substance per hectare, l/ha=liter per hectare, S=sensitive, R=resistant) • 1. Pre-emergence action against weeds: seeds of various broad-leaved weed and weed grass biotypes (origins) were sown in a 8-13 cm diameter pot filled with natural soil of a standard field soil (loamy silt; non-sterile) and covered with a covering soil layer of about 1 cm. The pots were then cultivated in a greenhouse (12-16 h of light, temperature day 20-22° C., night 15-18° C.) until the time of application. The pots were treated at the BBCH stage 00-10 of the seeds/plants on a laboratory track sprayer with spray liquors comprising the compositions according to the invention, mixtures or components used individually, as WG, WP, EC or other formulations. The application rate for the spray application was 100-600 l of water/ha. After the treatment, the plants were returned to the greenhouses and, when required, treated with fertilizer and watered. • 2. Post-emergence action against weeds: seeds of various broad-leaved weed and weed grass biotypes (origins) were sown in a 8-13 cm diameter pot filled with natural soil of a standard field soil (loamy silt; non-sterile) and covered with a covering soil layer of about 1 cm. The pots were then cultivated in a greenhouse (12-16 h of light, temperature day 20-22° C., night 15-18° C.) until the time of application. […]

The subject of series [1] is STEME. In words: Greenhouse trial, PE application on sensitive and resistant biotypes (test method 8). To be noted: g of AS/ha: (A) 90, (B) 1200, (C) 90, mixture 90 + 1200 + 90, iodosulfuron 10. It is filed as in vivo, Stellaria media. Here is the method:
as §1, §2

Series [2] has as its system LOLPE. In words: Greenhouse trial, pre-sowing application 7 days prior to sowing (test method 5). It is filed as in vivo, Lolium perenne. To be noted: g of AS/ha: (A) 90, (B) 1200, (C) 90, mixture 90 + 1200. Here is the method: as §1, §2
Series [3] deals with STEME. In words: Greenhouse trial, activity with different soil types. Format: in vivo, Stellaria media. Particulars: g of AS/ha: (A) 120, (B) 1200, (C) 90, mixture 120 + 1200 + 90. Here is the method:
as §1, §3
(§4) (notes: the term “seeds” also includes vegetative propagation forms such as, for example, rhizome pieces; abbreviations used: h light=hours of illumination, g of AS/ha=gram of active substance per hectare, l/ha=liter per hectare, S=sensitive, R=resistant) • 1. Pre-emergence action against weeds: seeds of various broad-leaved weed and weed grass biotypes (origins) were sown in a 8-13 cm diameter pot filled with natural soil of a standard field soil (loamy silt; non-sterile) and covered with a covering soil layer of about 1 cm. The pots were then cultivated in a greenhouse (12-16 h of light, temperature day 20-22° C., night 15-18° C.) until the time of application. The pots were treated at the BBCH stage 00-10 of the seeds/plants on a laboratory track sprayer with spray liquors comprising the compositions according to the invention, mixtures or components used individually, as WG, WP, EC or other formulations. The application rate for the spray application was 100-600 l of water/ha. After the treatment, the plants were returned to the greenhouses and, when required, treated with fertilizer and watered. • 2. Post-emergence action against weeds: seeds of various broad-leaved weed and weed grass biotypes (origins) were sown in a 8-13 cm diameter pot filled with natural soil of a standard field soil (loamy silt; non-sterile) and covered with a covering soil layer of about 1 cm. The pots were then cultivated in a greenhouse (12-16 h of light, temperature day 20-22° C., night 15-18° C.) until the time of application. The pots were treated at various BBCH stages between 11-25 of the seeds/plants, i.e. generally between two to three weeks after the start of the cultivation, on a laboratory track sprayer with spray liquors comprising the compositions according to the invention, mixtures or components used individually, as WG, WP, EC or other formulations. The application rate for the spray application was 100-600 l of water/ha. After the treatment, the plants were returned to the greenhouses and, when required, treated with fertilizer and watered. • 3. Selective pre-emergence action: seeds of various crop species (origins) were sown in a 8-13 cm diameter pot filled with natural soil of a standard field soil (loamy silt; non-sterile) and covered with a covering soil layer of about 1 cm. The pots were then cultivated in a greenhouse (12-16 h of light, temperature day 20-22° C., night 15-18° C.) until the time of application. The pots were treated at the BBCH stage 00-10 of the seeds/plants on a laboratory track sprayer with spray liquors comprising the compositions according to the invention, mixtures or components used individually, as WG, WP, EC or other formulations. The application rate for the spray application was 100-600 l of water/ha. […]

The test system of the next series is ALOMY. In words: Greenhouse trial, PE application on sensitive and resistant biotypes (test method 8). It is filed as in vivo, Alopecurus myosuroides. Particulars: g of AS/ha: (A) 90, (B) 1200, (C) 90, mixture 90 + 1200 + 90, iodosulfuron 10. Here is the method: as §1, §3, §4
The next series relates to HORVS. In words: Greenhouse trial, PO application, selective post-emergence action on crop (test method 4). Particulars: g of AS/ha: (A) 120, (B) 1200, (C) 120, mixture 120 + 1200 + 120. Format: in vivo, Hordeum vulgare, summer barley. Here is the method: as §1, §2
Series [4] has as its system LOLPE. In words: Greenhouse trial, PE application, pre-emergence action against weeds (test method 1). Format: in vivo, Lolium perenne. Particulars: g of AS/ha: (A) 90, (B) 1200, (C) 90, mixture 90 + 1200. Here is the method: as §1, §2
The test system of another series is AVEFA. In words: Greenhouse trial, pre-sowing application 7 days prior to sowing (test method 5). Format: in vivo, Avena fatua. To be noted: g of AS/ha: (A) 90, (B) 1200, (C) 90, mixture 90 + 1200. Here is the method: as §1, §2
For a further series, the system named is MATCH. In words: Greenhouse trial, activity with different soil types. Format: in vivo, Matricaria chamomilla. Particulars: g of AS/ha: (A) 120, (B) 1200, (C) 90, mixture 120 + 1200 + 90. Here is the method:
as §1, §3
(notes: the term “seeds” also includes vegetative propagation forms such as, for example, rhizome pieces; abbreviations used: h light=hours of illumination, g of AS/ha=gram of active substance per hectare, l/ha=liter per hectare, S=sensitive, R=resistant) • 1. Pre-emergence action against weeds: seeds of various broad-leaved weed and weed grass biotypes (origins) were sown in a 8-13 cm diameter pot filled with natural soil of a standard field soil (loamy silt; non-sterile) and covered with a covering soil layer of about 1 cm. The pots were then cultivated in a greenhouse (12-16 h of light, temperature day 20-22° C., night 15-18° C.) until the time of application. The pots were treated at the BBCH stage 00-10 of the seeds/plants on a laboratory track sprayer with spray liquors comprising the compositions according to the invention, mixtures or components used individually, as WG, WP, EC or other formulations. The application rate for the spray application was 100-600 l of water/ha. After the treatment, the plants were returned to the greenhouses and, when required, treated with fertilizer and watered. • 2. Post-emergence action against weeds: seeds of various broad-leaved weed and weed grass biotypes (origins) were sown in a 8-13 cm diameter pot filled with natural soil of a standard field soil (loamy silt; non-sterile) and covered with a covering soil layer of about 1 cm. The pots were then cultivated in a greenhouse (12-16 h of light, temperature day 20-22° C., night 15-18° C.) until the time of application. The pots were treated at various BBCH stages between 11-25 of the seeds/plants, i.e. generally between two to three weeks after the start of the cultivation, on a laboratory track sprayer with spray liquors comprising the compositions according to the invention, mixtures or components used individually, as WG, WP, EC or other formulations. The application rate for the spray application was 100-600 l of water/ha. After the treatment, the plants were returned to the greenhouses and, when required, treated with fertilizer and watered. • 3. […]

In the case of `CCC(CC)Nc1c([N+](=O)[O-])cc(C)c(C)c1[N+](=O)[O-]` [(B) pendimethalin, N-(1-ethylpropyl)-3,4-dimethyl-2,6-dinitrobenzenamine], in the series with APESV, the “activity APESV (visual, scale 0-100%)” value was determined as 0%. In addition, the “activity on crop plant TRZAS (visual, scale 0-100%)” value in the series on TRZAS (irrigation from above) amounted to 50%; in the series with TRZAS (irrigation from below) it was 0%. For the same compound, the “activity STEME resistant (visual, scale 0-100%)” value in the series on STEME [1] (resistant biotype) is given as 10%. In addition, in the series on STEME [1] (sensitive biotype), the “activity STEME sensitive (visual, scale 0-100%)” value was found to be 70%. The “activity LOLPE (visual, scale 0-100%)” value is 80% with LOLPE [2] and 10% in the series on LOLPE [4]. Also, in the series with STEME [3] (IU soil), the “activity STEME IU soil (visual, scale 0-100%)” value worked out at 85%. In the series on STEME [3] (IU/EC73 soil versus IU soil), the “Difference of the soil types, STEME” value is given as −30%. In addition, the “activity STEME IU/EC73 soil (visual, scale 0-100%)” value in the series with STEME [3] (IU/EC73 soil) was determined as 55%. In addition, in the series on ALOMY (resistant biotype), the “activity ALOMY resistant (visual, scale 0-100%)” value came out at 40%. Further, the “activity ALOMY sensitive (visual, scale 0-100%)” value in the series with ALOMY (sensitive biotype) is reported as 30%. The “activity on crop plant HORVS (visual, scale 0-100%)” value in the series on HORVS was 10%. In the series on AVEFA, the “activity AVEFA (visual, scale 0-100%)” value came out at 70%. The “activity MATCH IU soil (visual, scale 0-100%)” value in the series with MATCH (IU soil) was determined as 10%. For the same compound, the “Difference of the soil types, MATCH” value in the series on MATCH (IU/EC73 soil versus IU soil) is reported as −10%.
